Reference: the NIST ThermoML archive (doi:10.1021/acs.jced.7b01112)
Numbers after ± are expanded uncertainties.

Columns and labels:
[1] = Crystal; DTA
[2] = Molar enthalpy of transition or fusion; conditions: Crystal; DSC

With `O=C(O)c1ccc(C(=O)O)o1` [2,5-furandicarboxylic acid] the Normal melting temperature [1] was 341.30 ± 0.7 °C and the “Molar enthalpy of transition or fusion” value [2] was 13.2 ± 0.837 kcal/mol.
